Source: ChEMBL document CHEMBL4834496 (ACS Med Chem Lett, 2021)

Key:
[1] = biological target: T1, Botulinum neurotoxin type A (Clostridium botulinum, UniProt P0DPI0); assay: Inhibition of Clostridium botulinum BoNT/A using SNAP-25 (66-mer) as substrate by LC-MS analysis
[2] = biological target: T1, Botulinum neurotoxin type A; assay: Inhibition of Clostridium botulinum BoNT/A light chain

T1 sequence (P0DPI0 2-448 limits assumed): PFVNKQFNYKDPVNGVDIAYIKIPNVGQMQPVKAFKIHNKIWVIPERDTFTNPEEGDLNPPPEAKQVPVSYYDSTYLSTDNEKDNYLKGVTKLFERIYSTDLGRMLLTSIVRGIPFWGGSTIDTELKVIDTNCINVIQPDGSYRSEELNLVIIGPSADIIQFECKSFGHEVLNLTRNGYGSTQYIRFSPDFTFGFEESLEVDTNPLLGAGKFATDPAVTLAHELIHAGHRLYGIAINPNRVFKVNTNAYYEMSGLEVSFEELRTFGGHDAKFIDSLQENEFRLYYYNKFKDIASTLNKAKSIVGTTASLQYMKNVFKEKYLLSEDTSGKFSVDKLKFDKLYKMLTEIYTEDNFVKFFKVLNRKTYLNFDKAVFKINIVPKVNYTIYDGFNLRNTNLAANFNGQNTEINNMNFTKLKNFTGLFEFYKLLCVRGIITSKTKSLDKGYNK

SMILES | IC50 [1] [µM] | Ki [2] [µM]
O=C(C[C@@H](CCO)c1ccc(Cl)cc1Cl)NO | 1 | 
N=C(N)NCCC[C@H](N)C(=O)NO |  | 60
O=C(C[C@H](CCO)c1ccc(Cl)cc1)NO | 36 | 
O=C(C[C@H](CCO)c1ccc(Cl)cc1Cl)NO | 21 | 
O=C(C[C@@H](CCO)c1ccc(Cl)cc1)NO | 8 | 
